{
  "source": "PubChem BioAssay AID1949",
  "about": "(Southern Research Institute, 2009)",
  "note": "Results filed as inconclusive are left out. Calls of active or inactive are those of the source. How the calls were made is not given here.",
  "data": [
    {"tested_on": "M. tuberculosis H37Rv growth inhibition", "experiment": "Mycobacterium tuberculosis H37Rv growth inhibition, cell based, confirmatory dose response (AID 1949);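 further: bacteria grown 7 days with compound before Alamar blue readout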", "values": [
      {"compound": "CCOc1cc2c3c(c1)C1(C(=O)N3C(C)(C)C=C2C)C(C#N)=C(N)Oc2cc(O)ccc21", "note": "(centres undefined)", "IC50": "3.09 µg/mL"},
      {"compound": "O=C(Oc1cccc2cccnc12)c1ccccc1F", "IC50": "2.7 µg/mL"},
      {"compound": "Cc1c(Cl)ccc2c(=O)c(C(=O)O)c[nH]c12", "IC50": "29.6 µg/mL"},
      {"compound": "CCCc1ccc(OCC(=O)Nc2ccc(Cl)cc2Cl)cc1", "IC50": "2.86 µg/mL"},
      {"compound": "C=CCN(CC=C)C(=S)NC(=O)c1ccc(F)cc1", "IC50": "0.81 µg/mL"},
      {"compound": "CCc1cc(I)ccc1NC(=O)c1ccc([N+](=O)[O-])o1", "IC50": "1.61 µg/mL"},
      {"compound": "Cc1ccc(SCC(=O)Nc2cccc(C)c2)cc1", "IC50": "10.9 µg/mL"},
      {"compound": "O=C(CC(O)(C(F)(F)F)C(F)(F)F)Nc1ccc(Oc2ccccc2)cc1", "IC50": "7.49 µg/mL"},
      {"compound": "Cc1ccc(NC(=O)Nc2ccc([N+](=O)[O-])cc2)cc1F", "IC50": "13.2 µg/mL"},
      {"compound": "Cc1cnc(NC(=O)CSc2ccc(Cl)cc2)s1", "IC50": "1.67 µg/mL"},
      {"compound": "O=C(CCN1C(=O)C2C3C=CC(C4CC34)C2C1=O)Oc1cccc2cccnc12", "note": "(centres undefined)", "IC50": "1.46 µg/mL"},
      {"compound": "CC(=O)c1cccc(-n2nnnc2S(C)(=O)=O)c1", "IC50": "2.75 µg/mL"},
      {"compound": "CCOC(=O)COc1cc2oc(=O)cc(CC)c2cc1Cl", "IC50": "1.43 µg/mL"},
      {"compound": "CC(C)(C)c1cc(Cl)ccc1OCCCCn1ccnc1", "IC50": "1.41 µg/mL"},
      {"compound": "CCC(C)(C)c1ccc(OCCCn2ccnc2)cc1", "IC50": "1.92 µg/mL"},
      {"compound": "COC(=O)COc1ccc2c(=O)c(-c3ccc(Cl)cc3)coc2c1", "IC50": "0.99 µg/mL"},
      {"compound": "COC(=O)c1ccc(OCC(=O)Nc2ccccc2F)cc1", "IC50": "0.55 µg/mL"},
      {"compound": "COC(=O)C(C)Oc1ccc2c3c(c(=O)oc2c1)CCCCC3", "note": "(centres undefined)", "IC50": "> 50 µg/mL (inactive)"},
      {"compound": "Cc1cccc(Nc2nc(N)nc(CN3CCN(c4cccc(Cl)c4)CC3)n2)c1", "IC50": "0.39 µg/mL"},
      {"compound": "Nc1ccc2nc(SCC(=O)Nc3cccc(Cl)c3)sc2c1", "IC50": "> 50 µg/mL (inactive)"},
      {"compound": "CCOC(=O)c1cnc2ccc(OC)cc2c1Nc1ccc2c(c1)OCCO2", "IC50": "2.9 µg/mL"},
      {"compound": "CCC(C)c1ccccc1OCCCNC1CCCC1", "note": "(centres undefined)", "IC50": "8.81 µg/mL"},
      {"compound": "CCOC(=O)c1c(NC(=O)CN2CCN(CCO)CC2)sc2c1CCC(C)C2", "note": "(centres undefined)", "IC50": "7.17 µg/mL"},
      {"compound": "CCC(C)NC(=O)c1ccc(NC(=O)C2(c3ccccc3)CCCC2)cc1", "note": "(centres undefined)", "IC50": "1.08 µg/mL"},
      {"compound": "CC(C)Oc1ccc(Nc2ncnc3ccc(Br)cc23)cc1", "IC50": "2.5 µg/mL"},
      {"compound": "CCC(C)c1ccc(O)c(NC(=S)NC(=O)c2cncc(Br)c2)c1", "note": "(centres undefined)", "IC50": "< 0.1 µg/mL"},
      {"compound": "O=C(CC1(O)C(=O)N(CCc2ccccc2)c2ccc(Cl)cc21)c1ccc2c(c1)OCCO2", "note": "(centres undefined)", "IC50": "7.71 µg/mL"},
      {"compound": "CC1CCN(C(=S)NC(=O)c2ccc(Cl)cc2)CC1", "IC50": "0.35 µg/mL"},
      {"compound": "Clc1ccc(CN2CCN(c3ncnc4scc(-c5cccs5)c34)CC2)cc1", "IC50": "20.5 µg/mL"},
      {"compound": "COc1ccc(Nc2sc(C(=O)C34CC5CC(CC(C5)C3)C4)c(N)c2C#N)cc1", "IC50": "12.1 µg/mL"},
      {"compound": "COC(=O)COc1ccc(NC(=O)c2ccc3c(c2)C(=O)N(C(C)(C)C)C3=O)cc1", "IC50": "0.32 µg/mL"},
      {"compound": "Fc1cc(Br)cc2c1NC(c1cccnc1)C1CC=CC21", "note": "(centres undefined)", "IC50": "> 50 µg/mL (inactive)"},
      {"compound": "c1ccc(-n2nnnc2Oc2cccc3cccnc23)cc1", "IC50": "5.68 µg/mL"},
      {"compound": "CC1(C)CC(=O)C2=C(C1)NC1=C(C(=O)c3ccccc31)C2c1ccc(C(F)(F)F)cc1", "note": "(centres undefined)", "IC50": "30.3 µg/mL"},
      {"compound": "Cc1ccc(-c2nn(-c3ccccc3)cc2CNCc2ccccc2)cc1", "IC50": "1.11 µg/mL"},
      {"compound": "COC(=O)c1ccc(COC(=O)c2ccccc2OC)cc1", "IC50": "2.87 µg/mL"},
      {"compound": "N#Cc1cc2c(cc1C#N)OC(c1ccccc1)=NN2", "IC50": "16.4 µg/mL"},
      {"compound": "NC(=O)CSc1nnc(SCc2ccc(Cl)cc2)s1", "IC50": "5.19 µg/mL"},
      {"compound": "CC(C)(C)c1ccc(C(=O)Nc2nccs2)cc1Br", "IC50": "0.37 µg/mL"},
      {"compound": "COc1cc([N+](=O)[O-])ccc1NC(=O)c1cc(Cl)ccc1O", "IC50": "0.12 µg/mL"},
      {"compound": "Nc1ccccc1NCCOc1ccccc1", "IC50": "1.01 µg/mL"},
      {"compound": "CCc1ccc(Nc2ncnc3ccc(Br)cc23)cc1", "IC50": "4.16 µg/mL"},
      {"compound": "Cc1cccc(OCCn2c(NC(=O)c3ccco3)nc3ccccc32)c1", "IC50": "2.87 µg/mL"},
      {"compound": "COC(=O)c1ccc2nc(C)cc(Nc3ccc(OCc4ccccc4)cc3)c2c1", "IC50": "1.2 µg/mL"},
      {"compound": "CCN(CC)CCSc1nc2sc3c(c2c(=O)n1-c1ccc(OC)cc1)CCCC3", "IC50": "> 50 µg/mL (inactive)"},
      {"compound": "CCCCC(=O)NC(=S)Nc1ccc(N2CCN(C(=O)c3ccco3)CC2)c(Cl)c1", "IC50": "0.67 µg/mL"},
      {"compound": "O=C(CSc1ccc(Cl)cc1)Nc1ccc(Br)cn1", "IC50": "3.02 µg/mL"},
      {"compound": "Fc1ccc(Nc2nc(-c3ccccn3)cs2)cc1", "IC50": "0.28 µg/mL"},
      {"compound": "COc1ccc(C(=O)O/N=C(\\N)Cc2ccc(Cl)c(Cl)c2)cc1OC", "IC50": "9.32 µg/mL"},
      {"compound": "CC(=O)N/C(=N/c1nc(C)cc(C)n1)Nc1ccc(C)cc1C", "IC50": "> 50 µg/mL (inactive)"},
      {"compound": "O=C(CCNc1ccc(F)c(Cl)c1)c1cccs1", "IC50": "4.3 µg/mL"},
      {"compound": "O=C(N=Nc1c(O)[nH]c2ccccc12)c1ccc(Cl)cc1", "IC50": "46.7 µg/mL"},
      {"compound": "C/C(=N/Nc1nc(C)c(C)s1)c1ccc(Br)cc1", "IC50": "0.59 µg/mL"},
      {"compound": "O=C(NCC1COc2ccccc2O1)c1ccc(NC(=O)C2COc3ccccc3O2)cc1", "note": "(centres undefined)", "IC50": "1.94 µg/mL"},
      {"compound": "CC(=O)c1ccc(OC(=O)c2sc3ccccc3c2Cl)cc1", "IC50": "> 50 µg/mL (inactive)"},
      {"compound": "CC(NS(=O)(=O)c1cccc(Cl)c1)C(=O)Nc1ccc(Br)cc1F", "note": "(centres undefined)", "IC50": "3 µg/mL"},
      {"compound": "Cc1ccc(-c2cnc(C)c(-c3ccccc3)c2)nc1-c1ccccc1", "IC50": "> 50 µg/mL (inactive)"},
      {"compound": "O=C(CC12CC3CC(CC(C3)C1)C2)Nc1cccc(C(F)(F)F)c1", "IC50": "0.97 µg/mL"},
      {"compound": "O=C(Nc1ccccc1OC(F)F)c1ccc([N+](=O)[O-])o1", "IC50": "6.29 µg/mL"}
    ]}
  ]
}
